Test results published in patent US20240246968A1, “SMALL MOLECULE INHIBITORS OF KRAS G12C MUTANT” (Merck Sharp & Dohme LLC, priority 2021, published 2024).
pIC50: −log10 of the molar value.

Target: Gppcp-bound recombinant K-Ras4B G12C mutant protein (amino acids 1-169, C51S/C80L/C118S) (Homo sapiens, UniProt P01116, C118S/C51S/C80L/G12C)
Test: KRASG12C binding assay (LC-MS, compound binding rate)
Conditions: test compound final concentration 0.5 μM, 25° C., 1 hour
Summary of the method: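 Covalent adduct formation measured by deconvoluted intact-mass LC-MS after 1 h at 25 °C with compound at 0.5 μM final and 50 nM Gppcp-loaded KRAS G12C (residues 1-169, C51S/C80L/C118S). Buffer: TBS, 0.1 mM TCEP, 0.25 mM MgCl2, 50 μM Gppcp. Binding % = one-molecule adduct/(unbound + all adducts), binned A ≥80, B 60–80, C 40–60, D 20–40, E <20.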

SMILES	binding rate
CCc1cc2c(nc(C)n2C)c(Cl)c1-c1cccn2c(C(=O)c3cc(F)c(NC(=O)/C=C/CN[C@H]4CC[C@H](OC)CC4)c(F)c3)ccc12 (single isomer, unassigned) [Example 22-2, (E)-N-(4-(8-(4-chloro-6-ethyl-1,2-dimethyl-1H-benzo[d]imidazol-5-yl)indolizine-3-carbonyl)-2,6-difluorophenyl)-4-(((1r,4r)-4-methoxycyclohexyl)amino)but-2-enamide]	A (A binding rate of 80% or more is rated “A”)

Target: biotinylated KRAS G12C protein (GMP-PNP loaded) and GST-tagged Ras binding domain of c-RAF (Homo sapiens, UniProt P01116, C118S/C51S/C80L/G12C)
Test: RAS:RAF-RBD binding assay (TR-FRET)
Assay type: biochemical
Conditions: 30-minute incubation with KRAS G12C, then RAF-RBD 60 minute

pIC50	SMILES
7.87	Cc1nc2c(Cl)c(-c3cccn4c(C(=O)c5cc(F)c(NC(=O)/C=C/CNC6(C)CCOC6)c(F)c5)ccc34)c(C(F)(F)F)cc2n1C (single isomer, unassigned) [Example 131a, (E)-N-(4-(8-(4-chloro-1,2-dimethyl-6-(trifluoromethyl)-1H-benzo[d]imidazol-5-yl)indolizine-3-carbonyl)-2,6-difluorophenyl)-4-((3-methyltetrahydrofuran-3-yl)amino)but-2-enamide]
7.91	Cc1nc2c(Cl)c(-c3cccn4c(C(=O)c5cc(F)c(NC(=O)/C=C/CNC6(C)CCOC6)c(F)c5)ccc34)c(C(F)(F)F)cc2n1C (single isomer, unassigned) [Example 131b, (E)-N-(4-(8-(4-chloro-1,2-dimethyl-6-(trifluoromethyl)-1H-benzo[d]imidazol-5-yl)indolizine-3-carbonyl)-2,6-difluorophenyl)-4-((3-methyltetrahydrofuran-3-yl)amino)but-2-enamide]

The remaining lines, values behind:

SMILES	pIC50
CO[C@H]1CC[C@H](NC/C=C/C(=O)Nc2c(F)cc(C(=O)c3ccc4c(-c5cc6c(=O)n(C)ccc6cc5C(F)(F)F)cccn34)cc2F)CC1 [Example 125, (1r,4r)-N-((E)-4-((2,6-difluoro-4-(8-(2-methyl-1-oxo-6-(trifluoromethyl)-1,2-dihydroisoquinolin-7-yl)indolizine-3-carbonyl)phenyl)amino)-4-oxobut-2-en-1-yl)-4-methoxycyclohexan-1-aminium 2,2,2-trifluoroacetate]	6.40
Cc1c2cc(C(F)(F)F)c(-c3cccn4c(C(=O)c5cc(F)c(NC(=O)/C=C/CNC6(C)COC6)c(F)c5)ccc34)c(O)c2nn1C (single isomer, unassigned) [Example 123, (E)-N-(4-((2,6-difluoro-4-(8-(7-hydroxy-2,3-dimethyl-5-(trifluoromethyl)-2H-indazol-6-yl)indolizine-3-carbonyl)phenyl)amino)-4-oxobut-2-en-1-yl)-3-methyloxetan-3-aminium 2,2,2-trifluoroacetate]	7.11
CO[C@H]1CC[C@H](NC/C=C/C(=O)Nc2c(F)cc(C(=O)n3ccc4c(-c5c(C(F)(F)F)cc6c(nc(C)n6C)c5Cl)cccc43)cc2F)CC1 [Example 126, (E)-N-(4-(4-(4-chloro-1,2-dimethyl-6-(trifluoromethyl)-1H-benzo[d]imidazol-5-yl)-1H-indole-1-carbonyl)-2,6-difluorophenyl)-4-(((1r,4r)-4-methoxycyclohexyl)amino)but-2-enamide]	7.55
COc1c(-c2cccn3c(C(=O)c4cc(F)c(NC(=O)/C=C/CN[C@H]5CC[C@H](OC)CC5)c(F)c4)ccc23)c(C(F)(F)F)cc2c1cnn2C (single isomer, unassigned) [Example 117, (E)-N-(2,6-difluoro-4-(8-(4-methoxy-1-methyl-6-(trifluoromethyl)-1H-indazol-5-yl)indolizine-3-carbonyl)phenyl)-4-(((1r,4r)-4-methoxycyclohexyl)amino)but-2-enamide]	7.25
Cc1nc2c(Cl)c(-c3cccn4c(C(=O)c5cc(F)c(NC(=O)/C=C/CN(C)C)c(F)c5)ccc34)c(C(F)(F)F)cc2n1C [Example 128, mono((E)-4-chloro-5-(3-(4-(4-(dimethylammonio)but-2-enamido)-3,5-difluorobenzoyl)indolizin-8-yl)-1,2-dimethyl-6-(trifluoromethyl)-1H-benzo[d]imidazol-3-ium) mono(2,2,2-trifluoroacetate)]	6.80
Cc1nc2c(Cl)c(-c3cccn4c(C(=O)c5cc(F)c(NC(=O)/C=C/CN6CCCC6C(C)(C)O)c(F)c5)ccc34)c(C(F)(F)F)cc2n1C (stereo not drawn) [Example 129, mono((E)-4-chloro-5-(3-(3,5-difluoro-4-(4-(2-(2-hydroxypropan-2-yl)pyrrolidin-1-ium-1-yl)but-2-enamido)benzoyl)indolizin-8-yl)-1,2-dimethyl-6-(trifluoromethyl)-1H-benzo[d]imidazol-3-ium) mono(2,2,2-trifluoroacetate)]	7.00
Cc1c(-c2cccn3c(C(=O)c4cc(F)c(NC(=O)/C=C/CN[C@H]5CCOC5)c(F)c4)ccc23)ccc2c1CCC2O (stereo partly drawn) [Example 132, (3S)—N-((E)-4-((2,6-difluoro-4-(8-(1-hydroxy-4-methyl-2,3-dihydro-1H-inden-5-yl)indolizine-3-carbonyl)phenyl)amino)-4-oxobut-2-en-1-yl)tetrahydrofuran-3-aminium 2,2,2-trifluoroacetate]	6.52
Cc1nc2c(Cl)c(-c3cccn4c(C(=O)c5cc(F)c(NC(=O)/C=C/CN6CCC[C@H]6CO)c(F)c5)ccc34)c(C(F)(F)F)cc2n1C [Example 130, mono(4-chloro-5-(3-(3,5-difluoro-4-((E)-4-((2S)-2-(hydroxymethyl)pyrrolidin-1-ium-1-yl)but-2-enamido)benzoyl)indolizin-8-yl)-1,2-dimethyl-6-(trifluoromethyl)-1H-benzo[d]imidazol-3-ium) mono(2,2,2-trifluoroacetate)]	7.02
Cc1nc2c(Cl)c(-c3cccn4c(C(=O)c5cc(F)c(NC(=O)/C=C/CNC6CCC6(C)C)c(F)c5)ccc34)c(C(F)(F)F)cc2n1C (stereo not drawn) [Example 127, mono((E)-4-chloro-5-(3-(4-(4-((2,2-dimethylcyclobutyl)ammonio)but-2-enamido)-3,5-difluorobenzoyl)indolizin-8-yl)-1,2-dimethyl-6-(trifluoromethyl)-1H-benzo[d]imidazol-3-ium) mono(2,2,2-trifluoroacetate)]	6.40
CO[C@H]1CC[C@H](NC/C=C/C(=O)Nc2c(F)cc(C(=O)c3ccc4c(-c5cc6c(cc5C(F)(F)F)CCN(C)C6=O)cccn34)cc2F)CC1 [Example 121, (1r,4r)-N-((E)-4-((2,6-difluoro-4-(8-(2-methyl-1-oxo-6-(trifluoromethyl)-1,2,3,4-tetrahydroisoquinolin-7-yl)indolizine-3-carbonyl)phenyl)amino)-4-oxobut-2-en-1-yl)-4-methoxycyclohexan-1-aminium 2,2,2-trifluoroacetate]	6.77
CO[C@H]1CC[C@H](NC/C=C/C(=O)Nc2c(F)cc(C(=O)c3ccc4c(-c5cc6ncccc6cc5C(F)(F)F)cccn34)cc2F)CC1 [Example 120, mono(7-(3-(3,5-difluoro-4-((E)-4-(((1r,4r)-4-methoxycyclohexyl)ammonio)but-2-enamido)benzoyl)indolizin-8-yl)-6-(trifluoromethyl)quinolin-1-ium) mono(2,2,2-trifluoroacetate)]	6.32
COc1c(-c2cccc3c2ccn3C(=O)c2cc(F)c(NC(=O)/C=C/CN[C@H]3CCOC3)c(F)c2)c(C(F)(F)F)cc2c1nc(C)n2C (single isomer, unassigned) [Example 116, mono(2,2,2-trifluoroacetate)]	7.83
CO[C@H]1CC[C@H](NC/C=C/C(=O)Nc2c(F)cc(C(=O)c3ccc4c(-c5c(C(F)(F)F)cc6c(cnn6C)c5Cl)cccn34)cc2F)CC1 (single isomer, unassigned) [Example 118, (E)-N-(4-(8-(4-chloro-1-methyl-6-(trifluoromethyl)-1H-indazol-5-yl)indolizine-3-carbonyl)-2,6-difluorophenyl)-4-(((1r,4r)-4-methoxycyclohexyl)amino)but-2-enamide]	6.34

System: tumor-bearing mice expressing the KRAS G12C mutation
Test: not given
Conditions: cited from earlier work

SMILES	antitumor action
C=CC(=O)N1CCN(c2ncnc3c(F)c(-c4c(O)cccc4F)c(Cl)cc23)CC1 [ARS-1620]	exerts antitumor action

System: MIA PaCa-2 cells
Test: Growth inhibition activity on KRAS-G12C mutant cell line (MIA PaCa-2), CellTiter-Glo 3D
Assay type: cell-based, human
Conditions: MIA PaCa-2, 3-day culture with compound
Summary of the method: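 Luminescence readout (CellTiter-Glo 3D) after 3 days of compound treatment at 37 °C, 5% CO2, 0.2% final DMSO, gave % growth inhibition versus no-compound wells, from which IC50 (nM) was derived; cells had been plated in 10% FBS RPMI1640 one day before dosing.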

pIC50	SMILES
6.39	CCc1cc2c(nc(C)n2C)c(Cl)c1-c1cccn2c(C(=O)c3cc(F)c(NC(=O)/C=C/CN[C@H]4CC[C@H](OC)CC4)c(F)c3)ccc12 (single isomer, unassigned) [Example 22-2, (E)-N-(4-(8-(4-chloro-6-ethyl-1,2-dimethyl-1H-benzo[d]imidazol-5-yl)indolizine-3-carbonyl)-2,6-difluorophenyl)-4-(((1r,4r)-4-methoxycyclohexyl)amino)but-2-enamide]

System: cancer cells with the KRAS G12C mutation
Test: not given
Conditions: KRAS G12C mutated cell line, EGFR activation; cited from earlier work

SMILES	inhibition of KRAS activity and antiproliferative effect under EGFR activation
C=CC(=O)N1CC(N2CCN(C(=O)CNc3cc(C4(C)CC4)c(Cl)cc3O)CC2)C1 [ARS-853]	attenuated

Same assay, conditions: cancer cells with the KRAS G12C mutation; cited from earlier work

SMILES	induction of apoptosis
C=CC(=O)N1CC(N2CCN(C(=O)CNc3cc(C4(C)CC4)c(Cl)cc3O)CC2)C1 [ARS-853]	inducing apoptosis

Target: T1, interaction between recombinant K-Ras4B G12C mutant protein and cRAF RAS-binding domain (cRAF-RBD) (Homo sapiens, UniProt P01116, G12C)
T1 construct: made in house; host or cells: E. coli
Test: Inhibitory activity on interaction between KRAS G12C and cRAF (Alpha technology)
Assay type: biochemical
Conditions: GMPPNP-bound KRAS G12C incubated with compound at 25° C. for 1 hour, then cRAF-RBD; Alpha signal
Summary of the method: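 Alpha readout of cRAF-RBD (aa 50-132) binding to KRAS G12C (aa 1-169) after 1.5 h RT, following 1 h, 25° C compound preincubation with GMPPNP-bound protein (pH 7.5 Tris, 1 mM MgCl2, TCEP, Tween 20). IC50 fitted from titrations, with GDP-bound KRAS as 100% and DMSO as 0% inhibition.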

pIC50	SMILES
6.96	CCc1cc2c(nc(C)n2C)c(Cl)c1-c1cccn2c(C(=O)c3cc(F)c(NC(=O)/C=C/CN[C@H]4CC[C@H](OC)CC4)c(F)c3)ccc12 (single isomer, unassigned) [Example 22-2, (E)-N-(4-(8-(4-chloro-6-ethyl-1,2-dimethyl-1H-benzo[d]imidazol-5-yl)indolizine-3-carbonyl)-2,6-difluorophenyl)-4-(((1r,4r)-4-methoxycyclohexyl)amino)but-2-enamide]
